This note sets out measurements from ChEMBL document CHEMBL5291721, “A preclinical secondary pharmacology resource illuminates target-adverse drug reaction associations of marketed drugs” (Nat Commun, 2023).

Assay [1] deals with T1, Androgen receptor (Rattus norvegicus, UniProt P15207).
T1 sequence (P15207 whole entry): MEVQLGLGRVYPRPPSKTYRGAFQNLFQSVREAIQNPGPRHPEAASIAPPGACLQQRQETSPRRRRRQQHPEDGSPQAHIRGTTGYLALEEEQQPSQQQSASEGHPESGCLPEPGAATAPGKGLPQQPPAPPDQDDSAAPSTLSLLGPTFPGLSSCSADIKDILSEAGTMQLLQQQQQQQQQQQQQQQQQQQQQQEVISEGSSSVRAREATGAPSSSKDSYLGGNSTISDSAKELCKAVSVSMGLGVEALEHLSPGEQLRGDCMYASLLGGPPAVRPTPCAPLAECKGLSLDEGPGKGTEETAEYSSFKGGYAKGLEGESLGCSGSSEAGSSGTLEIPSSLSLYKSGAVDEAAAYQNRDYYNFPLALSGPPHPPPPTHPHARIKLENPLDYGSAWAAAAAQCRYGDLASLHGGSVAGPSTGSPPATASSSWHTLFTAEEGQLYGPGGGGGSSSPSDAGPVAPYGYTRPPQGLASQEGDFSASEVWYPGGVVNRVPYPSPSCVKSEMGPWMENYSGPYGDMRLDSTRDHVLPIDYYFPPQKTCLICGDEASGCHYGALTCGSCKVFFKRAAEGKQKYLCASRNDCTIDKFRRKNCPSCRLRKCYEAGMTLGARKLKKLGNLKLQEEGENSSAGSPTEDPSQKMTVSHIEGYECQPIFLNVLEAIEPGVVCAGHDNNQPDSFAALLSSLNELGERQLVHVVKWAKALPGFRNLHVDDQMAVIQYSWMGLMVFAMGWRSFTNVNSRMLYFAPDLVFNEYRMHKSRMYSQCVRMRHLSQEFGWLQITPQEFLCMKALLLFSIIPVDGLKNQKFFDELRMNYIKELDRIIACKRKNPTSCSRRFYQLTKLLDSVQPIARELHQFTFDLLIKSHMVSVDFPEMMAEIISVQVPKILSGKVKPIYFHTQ
The assay is classed as functional.

Assay [2] has as its target T1, Androgen receptor.
In assay [3] the target is Gamma-aminobutyric acid receptor subunit alpha-1/alpha-2/beta-2/gamma-2 (Homo sapiens, UniProt P14867+P18507+P47869+P47870). Format: functional, cell-based.
Gamma-aminobutyric acid receptor subunit alpha-1/alpha-2/beta-2/gamma-2, sequence (P14867 whole entry): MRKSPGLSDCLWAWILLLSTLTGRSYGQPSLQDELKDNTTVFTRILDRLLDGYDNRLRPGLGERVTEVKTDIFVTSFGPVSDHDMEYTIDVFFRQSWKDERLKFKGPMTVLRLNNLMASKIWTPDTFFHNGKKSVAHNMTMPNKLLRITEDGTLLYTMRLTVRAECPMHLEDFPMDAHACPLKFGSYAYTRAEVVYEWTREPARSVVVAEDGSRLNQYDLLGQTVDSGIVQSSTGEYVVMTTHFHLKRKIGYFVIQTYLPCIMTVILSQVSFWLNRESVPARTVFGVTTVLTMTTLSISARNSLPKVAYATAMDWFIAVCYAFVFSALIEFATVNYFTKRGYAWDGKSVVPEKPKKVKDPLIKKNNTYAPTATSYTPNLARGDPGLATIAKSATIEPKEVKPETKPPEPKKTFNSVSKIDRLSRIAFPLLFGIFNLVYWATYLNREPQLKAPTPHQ
Gamma-aminobutyric acid receptor subunit alpha-1/alpha-2/beta-2/gamma-2, sequence (P47870 whole entry): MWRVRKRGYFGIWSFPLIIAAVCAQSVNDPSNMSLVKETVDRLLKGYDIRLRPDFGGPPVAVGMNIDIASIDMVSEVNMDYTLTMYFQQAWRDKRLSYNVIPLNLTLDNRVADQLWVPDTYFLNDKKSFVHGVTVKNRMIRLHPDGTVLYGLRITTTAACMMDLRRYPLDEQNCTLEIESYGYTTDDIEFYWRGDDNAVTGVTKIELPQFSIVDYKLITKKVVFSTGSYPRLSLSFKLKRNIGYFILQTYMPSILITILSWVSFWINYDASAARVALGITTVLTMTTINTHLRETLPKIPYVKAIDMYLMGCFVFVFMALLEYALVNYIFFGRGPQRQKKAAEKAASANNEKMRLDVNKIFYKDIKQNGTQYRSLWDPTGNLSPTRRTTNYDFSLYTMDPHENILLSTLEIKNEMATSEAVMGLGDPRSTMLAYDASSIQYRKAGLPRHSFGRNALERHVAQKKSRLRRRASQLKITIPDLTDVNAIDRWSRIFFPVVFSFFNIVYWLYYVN
Gamma-aminobutyric acid receptor subunit alpha-1/alpha-2/beta-2/gamma-2, sequence (P18507 whole entry): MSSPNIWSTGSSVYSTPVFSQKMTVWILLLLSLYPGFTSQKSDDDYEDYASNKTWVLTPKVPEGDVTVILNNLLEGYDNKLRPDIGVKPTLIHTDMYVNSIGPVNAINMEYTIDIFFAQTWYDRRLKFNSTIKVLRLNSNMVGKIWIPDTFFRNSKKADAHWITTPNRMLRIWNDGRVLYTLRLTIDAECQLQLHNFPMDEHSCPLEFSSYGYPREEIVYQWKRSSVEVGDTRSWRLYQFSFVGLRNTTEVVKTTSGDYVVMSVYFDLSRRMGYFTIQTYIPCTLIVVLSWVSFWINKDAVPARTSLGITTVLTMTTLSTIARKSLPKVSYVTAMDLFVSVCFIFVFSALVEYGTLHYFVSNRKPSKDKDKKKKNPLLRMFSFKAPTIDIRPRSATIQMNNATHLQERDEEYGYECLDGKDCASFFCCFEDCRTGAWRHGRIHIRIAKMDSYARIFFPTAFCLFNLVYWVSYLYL
Gamma-aminobutyric acid receptor subunit alpha-1/alpha-2/beta-2/gamma-2, sequence (P47869 whole entry): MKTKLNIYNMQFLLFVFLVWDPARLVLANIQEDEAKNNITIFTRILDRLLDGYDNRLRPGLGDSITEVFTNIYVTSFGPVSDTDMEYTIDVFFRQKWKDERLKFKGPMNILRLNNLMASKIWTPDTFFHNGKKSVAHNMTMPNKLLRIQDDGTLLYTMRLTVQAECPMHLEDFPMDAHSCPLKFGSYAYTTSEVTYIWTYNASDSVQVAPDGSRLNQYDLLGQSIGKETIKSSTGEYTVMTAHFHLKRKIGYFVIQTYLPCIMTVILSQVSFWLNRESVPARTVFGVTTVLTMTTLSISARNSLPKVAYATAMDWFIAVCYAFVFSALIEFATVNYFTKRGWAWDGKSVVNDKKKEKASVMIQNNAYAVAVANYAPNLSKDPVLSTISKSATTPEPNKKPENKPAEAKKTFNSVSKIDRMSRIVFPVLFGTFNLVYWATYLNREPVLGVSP
A further assay deals with T2, D(4) dopamine receptor (Homo sapiens, UniProt P21917).
T2 sequence (P21917 whole entry): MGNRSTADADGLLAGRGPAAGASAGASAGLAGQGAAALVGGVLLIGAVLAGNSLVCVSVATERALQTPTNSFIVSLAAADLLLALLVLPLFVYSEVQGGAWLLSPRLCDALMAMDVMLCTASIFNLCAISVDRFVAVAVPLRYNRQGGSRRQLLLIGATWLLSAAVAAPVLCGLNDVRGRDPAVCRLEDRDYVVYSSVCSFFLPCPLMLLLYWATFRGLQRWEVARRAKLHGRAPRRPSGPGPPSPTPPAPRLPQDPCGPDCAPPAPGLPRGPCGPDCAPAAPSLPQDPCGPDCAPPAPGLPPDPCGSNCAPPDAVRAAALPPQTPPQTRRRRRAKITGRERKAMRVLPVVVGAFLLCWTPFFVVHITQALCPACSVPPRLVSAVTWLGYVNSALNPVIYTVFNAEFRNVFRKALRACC

A further assay deals with Glucagon receptor (Homo sapiens, UniProt P47871).
Glucagon receptor, sequence (P47871 whole entry): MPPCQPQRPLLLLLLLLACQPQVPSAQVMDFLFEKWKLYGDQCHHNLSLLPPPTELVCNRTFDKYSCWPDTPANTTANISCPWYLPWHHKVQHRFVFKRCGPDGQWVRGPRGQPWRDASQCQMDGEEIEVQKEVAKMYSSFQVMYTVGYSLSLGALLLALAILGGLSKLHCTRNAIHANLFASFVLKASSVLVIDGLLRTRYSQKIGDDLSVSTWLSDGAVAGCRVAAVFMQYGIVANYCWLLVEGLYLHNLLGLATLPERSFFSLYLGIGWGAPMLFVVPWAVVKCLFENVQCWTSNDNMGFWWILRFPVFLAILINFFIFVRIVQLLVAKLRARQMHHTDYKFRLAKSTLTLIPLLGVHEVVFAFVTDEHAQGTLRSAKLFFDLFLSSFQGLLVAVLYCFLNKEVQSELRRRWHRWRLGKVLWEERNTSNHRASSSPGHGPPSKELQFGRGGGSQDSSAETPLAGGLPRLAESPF
Assay [4] concerns the target 5-hydroxytryptamine receptor 2B (Homo sapiens, UniProt P41595).
The next assay concerns the target T3, Progesterone receptor (Homo sapiens, UniProt P06401).
T3 sequence (P06401 whole entry): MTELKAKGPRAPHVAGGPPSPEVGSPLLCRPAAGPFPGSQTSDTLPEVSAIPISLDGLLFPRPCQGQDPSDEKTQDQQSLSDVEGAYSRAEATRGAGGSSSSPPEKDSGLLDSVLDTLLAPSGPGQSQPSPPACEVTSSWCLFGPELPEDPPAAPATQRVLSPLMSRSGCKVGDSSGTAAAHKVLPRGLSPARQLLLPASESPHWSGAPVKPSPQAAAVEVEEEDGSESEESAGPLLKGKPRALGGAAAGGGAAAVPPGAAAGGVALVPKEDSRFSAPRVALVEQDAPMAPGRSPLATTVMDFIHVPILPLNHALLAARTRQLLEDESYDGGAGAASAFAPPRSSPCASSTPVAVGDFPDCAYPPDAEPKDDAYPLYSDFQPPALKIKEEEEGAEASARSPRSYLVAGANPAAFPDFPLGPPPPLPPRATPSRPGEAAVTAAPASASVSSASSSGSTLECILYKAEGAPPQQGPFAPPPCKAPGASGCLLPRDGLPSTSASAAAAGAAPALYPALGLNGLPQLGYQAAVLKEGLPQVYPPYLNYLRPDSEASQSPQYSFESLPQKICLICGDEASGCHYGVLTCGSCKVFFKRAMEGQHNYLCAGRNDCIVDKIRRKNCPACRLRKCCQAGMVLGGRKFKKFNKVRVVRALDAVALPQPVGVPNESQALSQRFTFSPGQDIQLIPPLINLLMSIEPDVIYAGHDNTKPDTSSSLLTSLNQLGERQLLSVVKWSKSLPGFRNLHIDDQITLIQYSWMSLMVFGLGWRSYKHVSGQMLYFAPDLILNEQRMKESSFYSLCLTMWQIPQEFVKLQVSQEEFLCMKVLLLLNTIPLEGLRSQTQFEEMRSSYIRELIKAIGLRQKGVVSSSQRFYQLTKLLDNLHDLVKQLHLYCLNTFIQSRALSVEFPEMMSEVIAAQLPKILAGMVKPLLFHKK

The target in assay [5] is T4, 5-hydroxytryptamine receptor 1A (Homo sapiens, UniProt P08908).
T4 sequence (P08908 whole entry): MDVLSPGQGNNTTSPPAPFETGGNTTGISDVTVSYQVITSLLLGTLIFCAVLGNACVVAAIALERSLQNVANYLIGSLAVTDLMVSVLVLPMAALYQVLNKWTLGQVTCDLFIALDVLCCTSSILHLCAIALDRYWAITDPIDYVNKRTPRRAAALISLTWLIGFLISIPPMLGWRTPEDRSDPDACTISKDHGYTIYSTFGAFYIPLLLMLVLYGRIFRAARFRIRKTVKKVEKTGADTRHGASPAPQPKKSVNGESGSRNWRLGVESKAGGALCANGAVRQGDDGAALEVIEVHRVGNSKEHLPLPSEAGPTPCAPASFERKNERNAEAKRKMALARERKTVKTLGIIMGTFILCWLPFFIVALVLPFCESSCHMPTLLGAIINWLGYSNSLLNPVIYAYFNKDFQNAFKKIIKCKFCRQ

For orientation: AC50 means the midpoint of the concentration-response curve, whichever way the signal moves.

Where only a bound is given, the exact number is not on record here.
Note: assay procedure not described here.

5-hydroxytryptamine receptor 2B, sequence (P41595 whole entry): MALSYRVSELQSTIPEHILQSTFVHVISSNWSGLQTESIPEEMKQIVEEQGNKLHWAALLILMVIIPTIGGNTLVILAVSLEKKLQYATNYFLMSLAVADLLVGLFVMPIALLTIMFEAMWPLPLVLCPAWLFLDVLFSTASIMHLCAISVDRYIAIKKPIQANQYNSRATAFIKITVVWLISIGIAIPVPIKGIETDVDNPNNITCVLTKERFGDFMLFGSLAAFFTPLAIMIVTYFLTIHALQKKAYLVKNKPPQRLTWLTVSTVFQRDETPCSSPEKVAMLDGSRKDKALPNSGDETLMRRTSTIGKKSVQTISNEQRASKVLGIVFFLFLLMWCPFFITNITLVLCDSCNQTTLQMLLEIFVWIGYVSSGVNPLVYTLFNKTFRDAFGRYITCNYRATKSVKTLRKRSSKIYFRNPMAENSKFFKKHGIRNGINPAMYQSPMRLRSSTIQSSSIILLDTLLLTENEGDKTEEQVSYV

With `C[N+](C)(C)CCOP(=O)([O-])OC[C@H](O)CO`, at Androgen receptor [1], the AC50 was > 30 µM.
Consider `CN(C)Cc1nnc2n1-c1ccc(Cl)cc1C(c1ccccc1)=NC2` [ADINAZOLAM], for which the AC50 on Androgen receptor [2] is > 10 µM.
Regarding `CN(C)C/C=C/C(=O)Nc1cc2c(Nc3ccc(F)c(Cl)c3)ncnc2cc1O[C@H]1CCOC1` [AFATINIB], the AC50 (at Androgen receptor [1]; in assay [3]) was > 30 µM in each case.
As to `Cc1ccccc1-n1c(CF)nc2ccc(N)cc2c1=O` [AFLOQUALONE], on Androgen receptor [2], the AC50 was > 30 µM.
In the case of `CCC1(c2ccc(N)cc2)CCC(=O)NC1=O` (configuration not stated) [AMINOGLUTETHIMIDE], the AC50 (on Androgen receptor [1]; in assay [3]) was > 30 µM each time.
With `O=C(/C=C/c1cccc(S(=O)(=O)Nc2ccccc2)c1)NO` [BELINOSTAT], the AC50 at Androgen receptor [2] is > 30 µM; at D(4) dopamine receptor, > 10 µM; at Glucagon receptor it was > 10 µM; in assay [4], > 10 µM; on Progesterone receptor, > 30 µM; in assay [5] it was > 10 µM.
In the case of `CC(O)(CS(=O)(=O)c1ccc(F)cc1)C(=O)Nc1ccc(C#N)c(C(F)(F)F)c1` (configuration not stated) [BICALUTAMIDE], the AC50 at D(4) dopamine receptor was > 10 µM; on Glucagon receptor it was > 30 µM; in assay [4], > 10 µM; at Progesterone receptor, > 30 µM; in assay [5], > 10 µM.
For `O=C(O)COCCN1CCN(C(c2ccccc2)c2ccc(Cl)cc2)CC1` (configuration not stated) [CETIRIZINE], the AC50 at D(4) dopamine receptor is > 10 µM; on Glucagon receptor it was > 30 µM; at Progesterone receptor it was > 30 µM; in assay [5] it was > 10 µM.
With `NC[C@H]1CC[C@H](C(=O)Oc2ccc(CCC(=O)O)cc2)CC1` [CETRAXATE], the AC50 in assay [3] is > 30 µM.
On to `CC(=O)O[C@]1(C(C)=O)CC[C@H]2[C@@H]3C=C(Cl)C4=CC(=O)[C@@H]5C[C@@H]5[C@]4(C)[C@H]3CC[C@@]21C` [CYPROTERONE ACETATE], for which the AC50 in assay [4] and in assay [5] was > 10 µM throughout.
Consider `C[C@@H]1C[C@H]2[C@@H]3C[C@H](F)C4=CC(=O)C=C[C@]4(C)[C@@]3(F)[C@@H](O)C[C@]2(C)[C@@]1(OC(=O)c1ccco1)C(=O)SCF` [FLUTICASONE FUROATE], for which the AC50 (at D(4) dopamine receptor; at Glucagon receptor; in assay [4]; in assay [5]) was > 10 µM each time.
Turning to `COc1ccc([C@@H]2CC(=O)c3c(O)cc(O)cc3O2)cc1O` [HESPERETIN], the AC50 at Androgen receptor [2] was > 10 µM.
Regarding `CNCCc1ccc(OC(=O)C(C)C)c(OC(=O)C(C)C)c1` [IBOPAMINE], the AC50 (on Androgen receptor [1]; in assay [3]) was > 30 µM in each case.
In the case of `CN(C)CCCN1c2ccccc2CCc2ccccc21` [IMIPRAMINE], the AC50 on D(4) dopamine receptor was 5.56 µM; at Glucagon receptor, > 30 µM; in assay [4], 0.319 µM; at Progesterone receptor, > 30 µM; in assay [5], > 10 µM.
Take `CCOC(=O)C1=C(C)NC(C)=C(C(=O)OCC)C1c1ccccc1/C=C/C(=O)OC(C)(C)C` [LACIDIPINE]: the AC50 on Androgen receptor [1] was > 30 µM.
With `C=C1c2cccc(O)c2C(=O)C2=C(O)[C@]3(O)C(=O)C(C(N)=O)=C(O)[C@@H](N(C)C)[C@@H]3[C@@H](O)[C@H]12` [METHACYCLINE], the AC50 on Androgen receptor [2] was > 30 µM.
As for `CN(Cc1cnc2nc(N)nc(N)c2n1)c1ccc(C(=O)N[C@@H](CCC(=O)O)C(=O)O)cc1` [METHOTREXATE], the AC50 on Androgen receptor [2] was > 30 µM; on Glucagon receptor, > 30 µM; in assay [4] it was > 10 µM; at Progesterone receptor it was > 30 µM; in assay [5], > 10 µM.
On to `OC[C@H]1O[C@@H](n2cnc3c2NC=NC[C@H]3O)C[C@@H]1O` [PENTOSTATIN], for which, in assay [3], the concentration at half-maximal activity (AC50) is > 30 µM.
Still for that read-out and setting: the figure for `CC(C)c1cccc(C(C)C)c1O` [PROPOFOL] is 2 µM.
With `CN[C@@H](C)[C@@H](O)c1ccccc1` [PSEUDOEPHEDRINE], the half-maximal activity concentration (AC50) on D(4) dopamine receptor was > 10 µM; at Glucagon receptor, > 30 µM; on Progesterone receptor, > 30 µM; in assay [5], > 10 µM.
Take `CCCN1CC(NS(=O)(=O)N(CC)CC)CC2Cc3c(O)cccc3CC21` (configuration not stated) [QUINAGOLIDE]: the values for the half-maximal activity concentration (AC50) (at Androgen receptor [1]; in assay [4]) were > 30 µM and 0.324 µM, respectively.
In the case of `O=C1OC(OC(=O)c2cccnc2Nc2cccc(C(F)(F)F)c2)c2ccccc21` (configuration not stated) [TALNIFLUMATE], the AC50 (on Androgen receptor [1]; in assay [3]) was > 30 µM throughout.
Turning to `O=S1(=O)CCN(CN2CCS(=O)(=O)NC2)CN1` [TAUROLIDINE], the AC50 (on Androgen receptor [1]; in assay [3]) was > 30 µM in each case.
Regarding `CCOC(=O)c1c(CSc2ccccc2)n(C)c2cc(Br)c(O)c(CN(C)C)c12` [UMIFENOVIR], the AC50 at Androgen receptor [1] was > 30 µM.
